The text below walks through data of PubChem BioAssay AID1208 (EPA DSSTox, 2008).

The series relates to rat chronic carcinogenicity bioassay, TD50. Briefly: DSSTox (CPDBAS) Carcinogenic Potency Database Summary Rat Bioassay Results. To be noted: for Potency: stronger effect = lower value. The text has this: The Carcinogenic Potency Database (CPDB) is a unique and widely used international resource of the results of over 6500 chronic, long-term animal cancer tests on over 1500 chemical substances. The CPDB provides easy access to the bioassay literature, with qualitative and quantitative analyses of both positive and negative experiments that have been published over the past 50 years in the general literature and by the National Cancer Institute/National Toxicology Program. The CPDB standardizes the diverse literature of cancer bioassays that vary widely in protocol, histopathological examination and nomenclature, and in the published author's choices of what information to provide in their papers. Results are reported in the CPDB for tests in rats, mice, hamsters, dogs, and nonhuman primates, and are based on the most positive result among all experiments for each sex-species. The DSSTox CPDBAS (all species) file incorporates data from the CPDB Summary Tables for the full list of over 1500 chemical substances tested in at least one species. Summary bioassay results for Rat (TD50, tumor sites, male, female, both sexes) are provided in the CPDB Summary Tables and the DSSTox CPDBAS file for over 1200 chemical substances.
TD50 is a standardized quantitative measure of carcinogenic potency (analogous to an LD50) and is reported in the CPDB Summary Table for each species. Activity Score for actives is computed by mapping of LOG10 (1/TD50_Rat_mmol) activity values spanning range [MIN, MAX] onto Integer 1-100 Activity Score range, where 100 is highest potency and 1 is lowest: Activity Score = 100 * INTEGER[(log10(1/Activity) - MIN)/(MAX - MIN)]. If activity is reported but no TD50_Rat_mmol value is computed, such as for a mixture, the Activity Score is assigned the activity value "50". […] Target sites are reported for each sex-species group with a positive result in the CPDB on the basis of a positive author's opinion for the particular site, using all results from both the general literature and NCI/NTP bioassays. If a chemical has two or more target sites listed, the results may be from different experiments, and a single site may be a target organ in more than one experiment, as well. Blank entry in TargetSites field indicates no results reported.

Where [1] appears, read: TD50_Rat_Note: no positive results, TargetSites_Rat_Female: no positive results.
Where [2] appears, read: TargetSites_Rat_Female: no positive results.
Where [3] appears, read: TD50_Rat_Note: no positive results.
Setting [4] is: TD50_Rat_Note: TD50 is harmonic mean of more than one positive test, TargetSites_Rat_Female: liver.

Active and inactive are the calls of the source.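 How the source made its calls: active means at least one rat sex group has a carcinogenic potency value and tumor site recorded; inconclusive means only rat studies were judged inadequate by the national testing program; inactive means no potency or tumor site, with negative rat experiments.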

Turning to `P`, the outcome under setting [1] is “inactive; no positive results”.
Take `CN(C)CCOC(C)(c1ccccc1)c1ccccn1` (stereo not given): under setting [2], the Potency is 1610 mg/kg/day.
Turning to `O=[N+]([O-])O`, under setting [1], the outcome was “inactive; no positive results”.
`O=C(CCl)c1ccccc1`: under setting [1], the outcome was “inactive; no positive results”.
In the case of `Cc1ccc(S(=O)(=O)OCCN(C)N=O)cc1`, the Potency (TD50_Rat_Note: TD50 is harmonic mean of more than one positive test, TargetSites_Rat_Female: liver, vascular system) was 4.8 mg/kg/day.
As for `CCn1cc(C(=O)O)c(=O)c2ccc(C)nc21`, where the note is “TD50_Rat_Note: TD50 is harmonic mean of more than one positive test, TargetSites_Rat_Female: clitoral gland”, the Potency is 201 mg/kg/day.
Turning to `CC(=O)c1ccc(S(=O)(=O)NC(=O)NC2CCCCC2)cc1`, the outcome under setting [1] is “inactive; no positive results”.
For `CC=O`, the Potency (TD50_Rat_Note: TD50 is harmonic mean of more than one positive test, TargetSites_Rat_Female: nasal cavity) is 153 mg/kg/day.
`COc1ccc(O)c(C(C)(C)C)c1`: the Potency (TD50_Rat_Note: TD50 is harmonic mean of more than one positive test, harmonic mean of TD50 includes a value for upper 99% confidence li, TargetSites_Rat_Female: stomach) was 405 mg/kg/day.
For the compound `NCC1(CC(=O)O)CCCCC1`, under setting [2], the Potency is 5850 mg/kg/day.
With `Cc1cccc(C)c1N`, under setting [3], the outcome was “inactive; no positive results”.
Take `Nc1ccc(Cc2ccc(N)cc2)cc1`: the Potency (TD50_Rat_Note: TD50 is harmonic mean of more than one positive test, TargetSites_Rat_Female: thyroid gland) is 20 mg/kg/day.
`Cc1ccc(NC(N)=O)cc1`: the outcome under setting [1] is “inactive; no positive results”.
With `NNC(=O)c1ccncc1`, the Potency (TD50_Rat_Note: TD50 is harmonic mean of more than one positive test, TargetSites_Rat_Female: mammary gland) is 150 mg/kg/day.
In the case of `Nc1ncc([N+](=O)[O-])s1`, the Potency (TargetSites_Rat_Female: kidney, lung, mammary gland) is 44.6 mg/kg/day.
In the case of `C=CC(=O)O`, the outcome under setting [1] was “inactive; no positive results”.
In the case of `Cc1ccc2c(c1N)C(=O)c1ccccc1C2=O`, the Potency under setting [4] is 59.2 mg/kg/day.
As to `C[C@](N)(Cc1ccc(O)c(O)c1)C(=O)O`, under setting [1], the outcome was “inactive; no positive results”.
On the same count and under the same terms, as for `CCOP(=S)(OCC)Oc1ccc([N+](=O)[O-])cc1`, the entry is “inactive; no positive results”.
As for `COc1ccc(C(c2ccc(OC)cc2)C(Cl)(Cl)Cl)cc1`, the outcome under setting [1] was “inactive; no positive results”.
On to `Nc1cc([N+](=O)[O-])ccc1C(=O)O`, for which the outcome under setting [1] is “inactive; no positive results”.
As for `Nc1ccc2cc3ccc(N)cc3nc2c1`, where the note is “TD50_Rat_Note: only experiment is NCI/NTP bioassay inadequate, TargetSites_Rat_Female: NTP bioassay inadequate”, the outcome is given as “ntp bioassay inadequate”.
In the case of `NC(=O)c1ccccc1C(N)=O`, the outcome under setting [1] is “inactive; no positive results”.
For `O[C@H]([C@H](O)[C@@H](O)CBr)[C@H](O)CBr`, where the note is “TD50_Rat_Note: positive test results only by intraperitoneal or intravenous injection”, the Potency is 8.37 mg/kg/day.
`COc1ccc(N)cc1N`: for the setting “TD50_Rat_Note: TD50 is harmonic mean of more than one positive test, TargetSites_Rat_Female: clitoral gland, ear Zymbals gland, mammary gland, thyroid gland”, the Potency is 183 mg/kg/day.
Consider `CCC1(c2ccccc2)C(=O)NC(=O)NC1=O`, for which the outcome under setting [1] was “inactive; no positive results”.
For `CCOc1nc2cccc(C(=O)OC(C)OC(=O)OC3CCCCC3)c2n1Cc1ccc(-c2ccccc2-c2nn[nH]n2)cc1` (stereo not given), under setting [1], the outcome was “inactive; no positive results”.
Take `CC(=O)O[C@H]1CC[C@@]2(C)C(=CC[C@@H]3[C@@H]2CC[C@]2(C)C(=O)CC[C@@H]32)C1`: the Potency under setting [4] was 49.6 mg/kg/day.
On to `c1ccc2[nH]c(-c3cscn3)nc2c1`, for which the outcome under setting [1] is “inactive; no positive results”.
In the case of `C/C=N/O`, the outcome under setting [3] is “inactive; no positive results”.
As to `CCCCCCCCCCC(C)c1ccc(S(=O)(=O)O)cc1` (stereo not given), the outcome under setting [1] was “inactive; no positive results”.
Consider `COP(=O)(OC)OC=C(Cl)Cl`, for which the Potency under setting [2] is 4.16 mg/kg/day.
Regarding `CC(C)=CCl`, the Potency (TD50_Rat_Note: TD50 is harmonic mean of more than one positive test, TargetSites_Rat_Female: esophagus, nasal cavity, oral cavity, stomach) was 31.8 mg/kg/day.
As to `O=[N+]([O-])OCC(CO[N+](=O)[O-])O[N+](=O)[O-]`, under setting [4], the Potency is 183 mg/kg/day.
In the case of `CC(Cl)Cl`, the outcome under setting [1] was “inactive; no positive results”.
For the compound `CNCCC(Oc1ccc(C(F)(F)F)cc1)c1ccccc1` (stereo not given), under setting [1], the outcome was “inactive; no positive results”.
`CC[C@H](C)[C@H]1O[C@]2(CC[C@@H]1C)C[C@@H]1C[C@@H](C/C=C(\C)[C@@H](O[C@H]3C[C@H](OC)[C@@H](O[C@H]4C[C@H](OC)[C@@H](O)[C@H](C)O4)[C@H](C)O3)[C@@H](C)/C=C/C=C3\CO[C@@H]4[C@H](O)C(C)=C[C@@H](C(=O)O1)[C@]34O)O2`: the outcome under setting [3] is “inactive; no positive results”.
For `NCC(=O)O`, the Potency (TargetSites_Rat_Female: kidney) was 25700 mg/kg/day.
As to `NNC(N)=S`, the outcome under setting [1] was inactive.
On to `CC(=O)Nc1nnc(-c2ccc([N+](=O)[O-])o2)s1`, for which the Potency (TargetSites_Rat_Female: hematopoietic system, kidney, lung, small intestine, stomach, vascular system) was 8.84 mg/kg/day.
Regarding `CCC1(CC)C(=O)N=C(O)NC1=O`, under “TD50_Rat_Note: TD50 is harmonic mean of more than one positive test, TargetSites_Rat_Female: no positive results”, the Potency was 45.7 mg/kg/day.
As to `O=P(OCCCl)(OCCCl)OCCCl`, the Potency (TD50_Rat_Note: TD50 is harmonic mean of more than one positive test, TargetSites_Rat_Female: kidney) was 86.7 mg/kg/day.
`O=NN1CCC(O)C1` (stereo not given): the Potency (TargetSites_Rat_BothSexes: all tumor bearing animals) is 7.65 mg/kg/day.
Consider `CC(=O)C(N=Nc1ccc(-c2ccc(N=NC(C(C)=O)C(=O)Nc3ccccc3)c(Cl)c2)cc1Cl)C(=O)Nc1ccccc1` (stereo not given), for which the outcome under setting [1] is “inactive; no positive results”.
With `CCOP(=S)(OCC)Oc1nc(Cl)c(Cl)cc1Cl`, the outcome under setting [1] was “inactive; no positive results”.
For the compound `ClC(Cl)Cl`, the Potency under setting [4] was 262 mg/kg/day.
`ClCC(Br)CBr` (stereo not given): the Potency (TD50_Rat_Note: TD50 is harmonic mean of more than one positive test, TargetSites_Rat_Female: adrenal gland, mammary gland, nasal cavity, oral cavity, stomach) is 0.259 mg/kg/day.
Regarding `CCCCC(CC)COC(=O)c1ccccc1C(=O)OCC(CC)CCCC` (stereo not given), under setting [4], the Potency was 716 mg/kg/day.
As for `O=CCCCC=O`, under setting [1], the outcome is “inactive; no positive results”.
Consider `[N-]=[N+]=CC(=O)OC[C@H](N)C(=O)O`, for which, for the setting “TD50_Rat_Note: positive test results only by intraperitoneal or intravenous injection, TargetSites_Rat_BothSexes: pancreas”, the Potency is 0.793 mg/kg/day.
In the case of `CN(N=O)c1ccccn1`, the Potency (TargetSites_Rat_Female: esophagus) was 0.214 mg/kg/day.
Regarding `CS(=O)(=O)OCCCNCCCOS(C)(=O)=O`, the outcome under setting [1] was “inactive; no positive results”.
As for `c1ccc(Nc2ccc3ccccc3c2)cc1`, under setting [1], the outcome was “inactive; no positive results”.
Regarding `OCC(CO)(CBr)CBr`, the Potency (TD50_Rat_Note: TD50 is harmonic mean of more than one positive test, TargetSites_Rat_Female: esophagus, mammary gland, oral cavity, thyroid gland) was 111 mg/kg/day.
On to `CC1=C(CC(=O)O)c2cc(F)ccc2/C1=C\c1ccc(S(C)(=O)=O)cc1`, for which the outcome under setting [3] was “inactive; no positive results”.
For the compound `O=C(N[C@H](CO)[C@H](O)c1ccc([N+](=O)[O-])cc1)C(Cl)Cl`, the result under setting [1] was inactive.
As to `ClC(Cl)(Cl)Cl`, for the setting “TD50_Rat_Note: TD50 is harmonic mean of more than one positive test, TargetSites_Rat_Female: liver, mammary gland”, the Potency is 27.8 mg/kg/day.
As to `FC(F)(F)CCl`, the Potency (TD50_Rat_Note: TD50 is harmonic mean of more than one positive test, TargetSites_Rat_Female: uterus) is 87.3 mg/kg/day.
With `CC(CCl)OC(C)CCl` (stereo not given), the outcome under setting [1] is “inactive; no positive results”.
Turning to `C=C1CC[C@H](O)C/C1=C/C=C1\CCC[C@]2(C)[C@@H]([C@H](C)CC[C@@H](O)C(C)(C)O)CC[C@@H]12`, the outcome under setting [3] is “inactive; no positive results”.
`Oc1ccc2ccccc2c1N=Nc1ccccc1`: the Potency under setting [4] is 29.4 mg/kg/day.
Take `O=C(Nc1ccc([N+](=O)[O-])cc1Cl)c1cc(Cl)ccc1O`: the outcome under setting [1] is “inactive; no positive results”.
`COP(=S)(OC)Oc1ccc([N+](=O)[O-])cc1`: under setting [1], the outcome was “inactive; no positive results”.
For the compound `CN(N=O)c1ccc(N=O)cc1`, the Potency (TD50_Rat_Note: positive test results only by intraperitoneal or intravenous injection, no positive results are statistically significan) was 1.3 mg/kg/day.
Regarding `CC(=O)N(C(C)=O)c1cccc2c1Cc1ccccc1-2`, where the note is “TargetSites_Rat_Female: ear Zymbals gland, mammary gland”, the Potency was 19 mg/kg/day.
`CC1(C)OC(=O)NC1=O`: under setting [3], the outcome is “inactive; no positive results”.
As for `O=C(O)c1[nH]n(-c2ccc(S(=O)(=O)O)cc2)c(=O)c1N=Nc1ccc(S(=O)(=O)O)cc1`, the outcome under setting [1] is “inactive; no positive results”.
For the compound `Nc1nc(N)nc(-c2ccc([N+](=O)[O-])o2)n1`, the Potency (TargetSites_Rat_Female: mammary gland) is 1.71 mg/kg/day.
Regarding `Nc1nc(N)nc(N)n1`, the Potency under setting [2] was 735 mg/kg/day.
In the case of `C=CC`, the outcome under setting [1] was “inactive; no positive results”.
